Consider eight compounds from patent US20260258000A1, “THYMIDYLATE SYNTHASE INHIBITORS AND USES THEREOF” (University of Florida Research Foundation, Incorporated, priority 2021, published 2026).

Data set [1] deals with T1, human thymidylate synthase (hTS) (Homo sapiens, UniProt P04818).
T1 construct: 6xHis (N); made in house; host or cells: E. coli BL21 (DE3)
In words: Tritium based TS catalytic activity assay. The conditions noted are these: for TS inhibition at decreasing drug concentrations: compared with Pem and MTX controls (FIG. 4C); for TS activity (conversion of dUMP): drug 250 μM, 10 μg/mL bacterially expressed TS protein (FIG. 1B); for inhibition of TS catalytic activity, 19-S series library screen: 250 uM (FIG. 4A). Type of data set: biochemical. The method, then: The catalytic activity of TS was determined by measuring the release of [31] from [5-3H]dUMP (ViTrax, VT122) resulting from the conversion of dUMP to dTMP as previously described12,33. […] Reactions were performed in 50 mM KH2PO4 (Sigma Aldrich, P0662) at pH 7.2 using 2 μg of purified human TS. Reactions were performed in a final volume of 200 μL with 100 mM β-mercaptoethanol (Sigma Aldrich, M7522), 40 μM dUMP (Sigma Aldrich, D3876), 100 μM 5,10-mTHF, and the [5-3H]dUMP tracer (ViTrax, VT122) accounting for 0.06% of the final dUMP concentration in the reaction. […] Reactions were initiated by the addition of the dUMP substrate and 5,10-mTHF cofactor, then incubated at 37° C. for 30 minutes. […] Reactions were terminated by the addition of 100 μL of ice-cold 20% trichloroacetic acid (Sigma Aldrich, T6399), then excess [5-31-]dUMP was removed by the addition of 200 μL of an albumin-coated activated charcoal solution. The albumin-coated activated charcoal solution was prepared by mixing 10 g of acid-washed activated dextran coated charcoal (Sigma Aldrich, C6241) with 2.5 g of bovine albumin (Sigma Aldrich, A1933) in 100 mL of H2O. The suspension was incubated at room temperature for 30 minutes and then centrifuged for 30 minutes at 10,000×g. […] For all experiments, positive control reactions were performed with no drug representing 100% TS activity, and negative control reactions were performed with no TS enzyme or no 5,10-mTHF substrate representing 0% TS activity. All assays were performed in biological duplicate and technical duplicate. Results were analyzed using GraphPad Prism 8.

The test system of the next data set is MIA PaCa-2 cells. Briefly: Cell viability (MTS) assay, MIA PaCa-2. Type of data set: cell-based. To be noted: Homo sapiens; MIA PaCa-2, 72-hour treatment, highest concentration 350 μM (FIG. 4E). As for the experimental part:
(§1) To prepare lysates, 0.5×10^6 PA NC-1 cells were seeded in 100 mm dishes in 10 ml DMEM High glucose and 24 hours later, 5-FU (Sigma) or 19-S were added at the specified concentrations. Cells were harvested after 72 hours and cell pellets were stored at −80° C. For GI50 determination, 3000 MIA PaCa-2 cells. […] After 72 hours, cell viability was assessed by reduction of MTS ((3-4,5-dimethylthiazol-2-yl)-5-(3-carboxymethoxyphenol)-2-(4-sulfophenyl)-2H-tetrazolium) using Cell Titer 96 R Aqueous One Solution Cell Proliferation Assay Kit (Promega), following manufacturer's recommendations. Chemiluminescent output (integration time 1000 ms) was measured on a SpectraMax M3® (Molecular devices). Data were normalized to max/minutes and plotted in GraphPad Prism for GI50 determination. Chemical synthesis details, including characterization of each compound, can be found in the supporting information document associated with this publication.

A further data set has as its target T2, DHFR (Homo sapiens, UniProt P00374).
T2 construct: purchased Sigma D6566
T2 sequence (P00374 1-187): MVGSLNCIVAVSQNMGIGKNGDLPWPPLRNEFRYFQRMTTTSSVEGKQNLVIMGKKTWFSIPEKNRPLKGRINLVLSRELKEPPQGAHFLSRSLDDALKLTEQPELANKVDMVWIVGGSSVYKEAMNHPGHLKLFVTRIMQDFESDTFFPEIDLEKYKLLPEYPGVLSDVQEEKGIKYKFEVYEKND
In words: Absorbance-based DHFR activity assay. Type of data set: biochemical. The conditions noted are these: for DHFR inhibition at reduced inhibitor concentrations: compared with Pem and MTX controls (FIG. 4D). As for the experimental part: 6 μL NADPH solution and 5 μL of dihydrofolic acid (DHFR substrate) (Sigma, D7006).

The target in a further data set is T3, human TS (Homo sapiens, UniProt P04818).
T3 construct: 6xHis (N); made in house; host or cells: E. coli BL21 (DE3)
In words: Competitive drug displacement assay (tritium TS assay). It is filed as biochemical. To be noted: TS pre-incubated with drug; for dUMP conversion with increasing 5,10-mTHF concentration (drug displacement): 5,10-mTHF up to 5×; for dUMP conversion with increasing dUMP concentration (drug displacement): dUMP up to 5×. As for the experimental part: For these experiments the TS protein was first incubated with each drug, the reaction was then initiated by addition of 5,10-mTHF and dUMP using different concentrations of either 5,10-mTHF or dUMP to change the substrate:drug ratio. If there was competition between one of the substrates and the drug for the same binding site, increasing the substrate concentration will displace more of the pre-bound drug and shift the equilibrium towards the enzyme: substrate complex, thus allowing the conversion of dUMP to proceed (FIG. 5A).
The competitive drug displacement assay utilized the standard reaction conditions for the tritium based TS catalytic activity assay including 40 μM dUMP (Sigma Aldrich, D3876) with the [5-3H]dUMP tracer (ViTrax, VT122) accounting for 0.06% of the final dUMP concentration and 100 μM 5,10-methylene tetrahydrofolate (defined as 1× dUMP and 1×5,10-mTHF). Concentrations of total dUMP and 5,10-mTHF were then changed relative to these 1× concentrations to concisely indicate the changes in either the substrate or cofactor concentration. […] The remaining components in each 200 μL reaction were consistent in all reactions and included 2 μg of purified human TS in 50 mM KH2PO4 (Sigma Aldrich, P0662) and 100 mM β-mercaptoethanol (Sigma Aldrich, M7522).

A further data set relates to CM cells. In words: Cell viability (MTS) assay, CM. The conditions noted are these: 72 hour drug incubation (FIG. 1C). It is filed as cell-based.
The next data set concerns BON cells. Briefly: Cell viability (MTS) assay, BON. Type of data set: cell-based. To be noted: 72 hour drug incubation (FIG. 1C).
For data set [2], the system named is TS protein expression in PANC-1 cells. In words: Immunoblot analysis of TS expression in PANC-1 cells. It is filed as cell-based. The conditions noted are these: PANC-1 cells treated 72 hours (FIG. 1D). As for the experimental part: as §1, with “Data were normalized to max/minutes and plotted in GraphPad Prism for GI50 determination. Chemical synthesis details, including characterization of each compound, can be found in the supporting information document associated with this publication.” left out
Protein lysates were generated using RIPA buffer (Santa Cruz) for 20 minutes on ice, followed by 15 minutes centrifugation at 13,000 rpm, at 4° C. […] Protein was quantified using Bradford Assay (BioRad) following manufacturer's recommendations, standard curves were generated with bovine serum albumin (Fisher).
20 μg of total protein lysate was loaded per lane of 10% Tris Glycine Gel (Invitrogen). […] Signal was detected using West Pico Plus chemiluminescent substrate (Thermo Scientific) following manufacturer's recommendations. […] For protein level quantification relative to loading control, densitometric analysis was performed by ImageJ software.

Data set [3] concerns Luc-PANC-1 xenograft tumors. Briefly: Luc-PANC-1 subcutaneous xenograft tumor model. It is filed as in vivo, NSG mice. To be noted: 25 mg/kg oral gavage. The method, then:
Luc-PANC-1 (5×106) and Luc-CM (0.5×106) cells were resuspended in 200 ul of PBS and injected subcutaneously (SQ) or intraperitonially (IP) to 6-8-week-old NSG mice respectively. Tumor bearing mice were imaged using Xenogen IVIS® Lumina Bioluminescence Imaging System (Perkin Elmer) every week after cell injection. At 4 weeks, animals were randomized based on slope of luciferase signal and treatment was initiated. […] For all animals body weight was recorded weekly and Luc-PANC-1 tumor volume was measured weekly with a caliper. For scheduled sacrifice experiments, animals were euthanized after 4 weeks of treatment. […] Harvested tumors were excised and weighted, and fixed in alcoholic formalin (67.5% Ethanol, 10% Formaldehyde 37%, 22.5% water) for pathology analysis. Tumor volume was calculated as [volume=0.52 (length×width2)].
From this stock, the exact volume needed for daily in vivo delivery was then formulated into 95% corn oil (Mazola) at 2 different concentrations: 1.25 mg/mi (formulation 1) and 3.125 mg/ml (formulation 2). To determine the volume of solution administered to the mice, 200 μl (maximum volume to be delivered in mice via IP or oral gavage) was divided by 25 g of mouse body weight. Therefore, 8 μl of formulation 1 or 2 multiplied by the weight of the mice were used to reach a dose of 10 or 25 mg/kg of body weight, respectively.
Prior to bioluminescence imaging the region where tumors were located was shaved. Mice were then anesthetized with 2.5% isoflurane in 02 then administered the D-luciferin substrate (150 mg/kg in PBS) by IP injection. Following the injection of the D-luciferin substrate mice were imaged using the Xenogen IVIS® Lumina Bioluminescence Imaging System (Perkin Elmer). The peak of luciferase photon flux was recorded 6 minutes after injection of the D-luciferin substrate. The total photon flux was analyzed and restricted to tumor ROI (region of interest) using Living Image v2.60.1 software (Imaging Systems).

Data set [4] can be described thus: Maximum tolerated dose (MTD) study. Type of data set: in vivo. An excerpt:
After 3 treatment cycles, animals rested (no treatment) for one more week before euthanasia. Body weight and physical status of all mice were closely monitored. Tissues were collected and fixed in alcoholic formalin to test for toxicity.

“Also recorded” adds a separate entry of the source. Bounds are passed on as bounds.

T3 sequence (P04818 whole entry): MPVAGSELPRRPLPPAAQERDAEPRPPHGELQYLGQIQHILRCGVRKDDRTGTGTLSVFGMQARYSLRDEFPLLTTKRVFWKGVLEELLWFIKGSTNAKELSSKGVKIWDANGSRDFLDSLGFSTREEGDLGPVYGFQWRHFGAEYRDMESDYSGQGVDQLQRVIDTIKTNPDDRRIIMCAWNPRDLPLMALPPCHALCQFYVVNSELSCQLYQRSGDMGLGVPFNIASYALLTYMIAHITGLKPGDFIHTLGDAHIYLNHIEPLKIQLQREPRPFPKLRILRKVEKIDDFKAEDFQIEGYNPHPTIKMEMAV
T1 sequence (P04818 whole entry): as above

With `Nc1nc2[nH]cc(CCc3ccc(C(=O)N[C@@H](CCC(=O)O)C(=O)O)cc3)c2c(=O)[nH]1` [Pem, pemetrexed, reference compound], the “TS inhibition at decreasing drug concentrations” value in data set [1] was “greater TS inhibition than the MTX antifolate”. The 50% growth inhibitory concentration (GI50) in the data set with MIA PaCa-2 cells was more than 350 µM. The “DHFR inhibition at reduced inhibitor concentrations” value on DHFR is recorded as “less effective against DHFR”. At human TS, the “dUMP conversion with increasing 5,10-mTHF concentration (drug displacement)” value is given as “increased the dUMP conversion” and the “dUMP conversion with increasing dUMP concentration (drug displacement)” value is reported as “did not increase dUMP conversion”.

In the case of `O=c1[nH]cc(F)c(=O)[nH]1` [Compound 5-FU, 5-fluorouracil, reference compound], it took 14.8 µM to inhibit growth in the data set on CM cells by half (GI50). For the same compound, inhibition in the data set with BON cells was half-maximal at 7.1 µM (IC50). Further, the “TS protein expression (steady-state TS levels)” value in data set [2] is given as “induced TS expression”.

As for `O=c1[nH]c(=O)n([C@H]2C[C@H](O)[C@@H](CO)O2)cc1F` [FdUrd, 5-fluoro-2′-deoxyuridine, reference compound], the “TS activity (conversion of dUMP)” value in data set [1] is listed as “reduced conversion of dUMP”. The “dUMP conversion with increasing dUMP concentration (drug displacement)” value on human TS was “did not show drug displacement”.

As to `CN(Cc1cnc2nc(N)nc(N)c2n1)c1ccc(C(=O)N[C@@H](CCC(=O)O)C(=O)O)cc1` [MTX, methotrexate, reference compound], in the data set with MIA PaCa-2 cells, the GI50 is more than 350 µM.

Turning to `CCc1nc(N)nc(N)c1-c1ccc(NCCOCCOCCN)c([N+](=O)[O-])c1` [Compound 19-S10], on DHFR (1 μM (FIG. 4B)), the “inhibition of DHFR activity, 19-S series library screen” value is given as “exception”.

For the compound `O=c1[nH]c(=O)n([C@@H]2O[C@H](CO)[C@@H](O)[C@H]2O)cc1F` [FUrd, 5-fluorouridine, reference compound], the “TS activity (conversion of dUMP)” value in [1] was “inactive”.

On to `CCc1nc(N)nc(N)c1-c1ccc(N(C)Cc2ccc3c(c2)OCO3)c([N+](=O)[O-])c1` [Compound 19-S7], for which, in data set [1], the “inhibition of TS catalytic activity, 19-S series library screen” value is “inhibited TS activity”; the “TS inhibition at decreasing drug concentrations” value is “greater TS inhibition than both MTX and Pen; also recorded: both strong TS and DHFR inhibition”. Further, in the data set on MIA PaCa-2 cells, the GI50 is 0.2 to 0.84 µM. Also, in data set [3] (4 cycles), the “adverse effects / body weight” value is listed as “did not show adverse effects or declines in body weight”. Moreover, in [3] (4 cycles (FIGS. 7A-7H)), the “tumor progression (photon flux, tumor volume, excised tumor mass)” value was “inhibited tumor progression”. The mortality entry in [4] (50 mg/kg PO, n=3 (FIG. 16B)) was “found dead after 12th (n=1) and 15th (n=2) dose”. Besides, the MTD in data set [4] (PO, NSG mice (FIGS. 16A-16B)) is recorded as 25 mg/kg. Moreover, the “DHFR inhibition at reduced inhibitor concentrations” value at DHFR is “both strong TS and DHFR inhibition”. On human TS, the “dUMP conversion with increasing 5,10-mTHF concentration (drug displacement)” value is on record as “increased the amount of dUMP conversion” and the “dUMP conversion with increasing dUMP concentration (drug displacement)” value is “the amount of dUMP conversion did not increase”.

Consider `CCc1nc(N)nc(N)c1-c1ccc(N(C)Cc2ccc(OC)cc2)c([N+](=O)[O-])c1` [Compound 19-S5], for which, in [1], the “inhibition of TS catalytic activity, 19-S series library screen” value was “inhibited TS activity”. Also, in data set [1] (listed as 19-55), the “TS inhibition at decreasing drug concentrations” value was “greater TS inhibition than both MTX and Pen”. Further, in data set [1] (listed as 19-85), the “TS inhibition at decreasing drug concentrations” value was “both strong TS and DHFR inhibition”. Moreover, the 50% growth inhibitory concentration (GI50) with MIA PaCa-2 cells fell in the range of 0.2 to 0.84 µM. The “DHFR inhibition at reduced inhibitor concentrations” value at DHFR was “both strong TS and DHFR inhibition”. Further, on human TS, the “dUMP conversion with increasing 5,10-mTHF concentration (drug displacement)” value is given as “increased the amount of dUMP conversion” and the “dUMP conversion with increasing dUMP concentration (drug displacement)” value was “the amount of dUMP conversion did not increase”.
